Like-named read-outs stand apart in the source and are kept apart here.
Key:
Type in all cases: biochemical
CDK2/CCNE1 = CDK2/CCNE1 (Homo sapiens, UniProt P24941); assay: CDK2 homogeneous time-resolved fluorescence (HTRF) kinase assay; conditions: CDK2/CCNE
In short: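 TR-FRET read-out (665 nm, or 665/615 ratio) of Eu-antibody detection of phospho-4E-BP1 (Thr37/46) ULight peptide. Enzyme 3 nM, ATP 1 mM, peptide 50 nM, 1% DMSO; 60 min reaction at 23 °C after 20 min compound preincubation. IC50 from 11-point half-log titrations, top typically 10 μM.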

CDK1/CCNB1 = CDK1/CCNB1 (Homo sapiens, UniProt P06493); assay: CDK1 homogeneous time-resolved fluorescence (HTRF) kinase assay; conditions: >250 nM; CDK1/CCNB; read-out: CDK1/CCNB IC50 >250 nM
Chain of CDK1/CCNB1 (P06493 whole entry): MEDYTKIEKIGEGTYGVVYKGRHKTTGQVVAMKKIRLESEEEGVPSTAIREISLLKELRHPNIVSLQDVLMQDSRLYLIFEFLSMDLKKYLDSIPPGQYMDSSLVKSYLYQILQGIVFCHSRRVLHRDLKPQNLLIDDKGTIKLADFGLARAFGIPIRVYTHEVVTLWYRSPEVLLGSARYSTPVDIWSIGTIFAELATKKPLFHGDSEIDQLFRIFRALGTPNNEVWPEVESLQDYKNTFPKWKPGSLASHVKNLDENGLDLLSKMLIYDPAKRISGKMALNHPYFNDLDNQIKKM
Chain of CDK1/CCNB1 (P14635 whole entry partner): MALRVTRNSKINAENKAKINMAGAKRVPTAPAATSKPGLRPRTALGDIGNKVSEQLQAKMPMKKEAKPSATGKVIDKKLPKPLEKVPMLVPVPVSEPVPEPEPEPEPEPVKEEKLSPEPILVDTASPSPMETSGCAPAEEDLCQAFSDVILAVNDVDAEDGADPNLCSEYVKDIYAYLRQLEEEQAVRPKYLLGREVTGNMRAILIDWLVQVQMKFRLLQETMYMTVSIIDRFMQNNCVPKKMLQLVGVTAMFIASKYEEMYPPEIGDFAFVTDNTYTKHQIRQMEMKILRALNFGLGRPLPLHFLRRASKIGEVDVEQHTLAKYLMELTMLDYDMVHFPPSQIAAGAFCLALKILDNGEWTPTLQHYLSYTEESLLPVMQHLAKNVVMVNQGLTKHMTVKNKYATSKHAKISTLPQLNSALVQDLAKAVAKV
In short: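 0.5 nM CDK1/CCNB1 was preincubated 20 min at 23 °C with compound in HEPES pH-unspecified buffer (MgCl2, EGTA, DTT, Tween 20), then reacted 60 min with 1 mM ATP and 50 nM ULight-4E-BP1 (Thr37/46) peptide. EDTA-stopped reactions were detected with 2 nM Eu-anti-phospho antibody; IC50 from 11-point half-log titrations.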

CDK4/CCND3 = CDK4/CCND3 (Homo sapiens, UniProt P11802); assay: CDK4 homogeneous time-resolved fluorescence (HTRF) kinase assay; conditions: CDK4/CCND
Chain of CDK4/CCND3 (P11802 whole entry): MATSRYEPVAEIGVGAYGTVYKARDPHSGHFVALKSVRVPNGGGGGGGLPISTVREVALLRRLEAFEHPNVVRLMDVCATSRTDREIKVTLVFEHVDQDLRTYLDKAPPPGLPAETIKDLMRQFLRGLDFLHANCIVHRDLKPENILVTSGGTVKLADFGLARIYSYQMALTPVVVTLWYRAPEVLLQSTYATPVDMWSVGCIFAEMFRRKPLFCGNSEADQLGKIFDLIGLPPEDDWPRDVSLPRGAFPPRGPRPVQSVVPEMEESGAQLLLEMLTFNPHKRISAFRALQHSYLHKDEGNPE
Chain of CDK4/CCND3 (P30281 whole entry partner): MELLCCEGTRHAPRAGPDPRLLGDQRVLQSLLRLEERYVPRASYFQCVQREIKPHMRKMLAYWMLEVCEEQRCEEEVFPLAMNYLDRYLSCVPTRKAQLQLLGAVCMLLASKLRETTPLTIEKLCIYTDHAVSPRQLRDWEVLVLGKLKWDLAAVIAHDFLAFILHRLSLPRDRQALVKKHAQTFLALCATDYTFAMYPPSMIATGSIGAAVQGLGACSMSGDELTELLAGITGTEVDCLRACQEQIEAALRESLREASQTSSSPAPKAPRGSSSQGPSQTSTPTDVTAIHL
In short: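 TR-FRET read (665 nm, or 665/615 ratio) of 4E-BP1 Thr37/46 phosphorylation by 1.5 nM CDK4/CCND3 at 1 mM ATP, 50 nM ULight peptide, 1% DMSO. Reaction ran 60 min at 23 °C after 20 min compound–enzyme preincubation. IC50 from 11-point half-log dilutions, top 10 μM.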

CDK6/CCND1 = CDK6/CCND1 (Homo sapiens, UniProt Q00534); assay: CDK6 homogeneous time-resolved fluorescence (HTRF) kinase assay; conditions: CDK6/CCND, 1 mM ATP
Chain of CDK6/CCND1 (Q00534 whole entry): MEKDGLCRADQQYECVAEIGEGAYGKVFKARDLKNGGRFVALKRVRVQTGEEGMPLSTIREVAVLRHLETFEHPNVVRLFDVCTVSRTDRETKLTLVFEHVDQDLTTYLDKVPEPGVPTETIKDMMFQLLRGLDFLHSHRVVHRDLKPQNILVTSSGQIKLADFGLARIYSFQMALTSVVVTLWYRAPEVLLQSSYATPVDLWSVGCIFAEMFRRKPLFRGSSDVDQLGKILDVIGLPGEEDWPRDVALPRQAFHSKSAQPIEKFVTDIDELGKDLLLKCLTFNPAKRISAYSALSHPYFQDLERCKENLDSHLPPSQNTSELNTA
Chain of CDK6/CCND1 (P24385 whole entry partner): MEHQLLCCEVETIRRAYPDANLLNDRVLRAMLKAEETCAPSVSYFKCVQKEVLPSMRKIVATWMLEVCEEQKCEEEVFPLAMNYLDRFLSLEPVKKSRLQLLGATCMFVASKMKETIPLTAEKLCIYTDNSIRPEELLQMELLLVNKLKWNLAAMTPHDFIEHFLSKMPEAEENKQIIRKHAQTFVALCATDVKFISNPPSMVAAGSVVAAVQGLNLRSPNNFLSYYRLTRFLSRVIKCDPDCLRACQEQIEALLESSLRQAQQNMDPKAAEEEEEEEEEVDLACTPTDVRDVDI
In short: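 Assay conditions: HEPES buffer containing 10 mM MgCl2, 1 mM EGTA, 2 mM DTT, 0.01% Tween 20; 1 nM CDK6/CCND1, 50 nM peptide substrate, 1 mM ATP. Detection after 60 min reaction used 2 nM europium antibody with 340 nm excitation. Potency fitted from half-log series, 11 points.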

[1] = 25-250 nM, read-out: CDK2/CCNE IC50, 25-250 nM
[2] = >250 nM, read-out: CDK4/CCND IC50, >250 nM
[3] = >250 nM, read-out: CDK6/CCND IC50, >250 nM
[4] = <25 nM, read-out: CDK2/CCNE IC50, <25 nM
[5] = 25-250 nM, read-out: CDK6/CCND IC50, 25-250 nM
[6] = 25-250 nM, read-out: CDK4/CCND IC50, 25-250 nM
[7] = >250 nM, read-out: CDK2/CCNE IC50, >250 nM

Compound	IC50 (CDK2/CCNE1; [1]) [nM]	IC50 (CDK1/CCNB1) [nM]	IC50 (CDK4/CCND3; [2]) [nM]	IC50 (CDK6/CCND1; [3]) [nM]	IC50 (CDK2/CCNE1; [4]) [nM]	IC50 (CDK6/CCND1; [5]) [nM]	IC50 (CDK4/CCND3; [6]) [nM]	IC50 (CDK2/CCNE1; [7]) [nM]
Cc1c(-c2nccc3cnc(Nc4ccc(S(C)(=O)=O)c(C(F)(F)F)c4)cc23)ccc2c1cnn2CC(C)(C)O [Ex 844, 2-methyl-1-(4-methyl-5-(7-((4-(methylsulfonyl)-3-(trifluoromethyl)phenyl)amino)-2,6-naphthyridin-1-yl)-1H-indazol-1-yl)propan-2-ol]	25 to 250	> 250	> 250	> 250				
Cc1cc(S(C)(=O)=O)ccc1Nc1cc2c(-c3ccc4c(cnn4CC(C)(C)O)c3C)nccc2cn1 [Ex 845, 2-methyl-1-(4-methyl-5-(7-((2-methyl-4-(methylsulfonyl)phenyl)amino)-2,6-naphthyridin-1-yl)-1H-indazol-1-yl)propan-2-ol]		> 250	> 250		< 25	25 to 250		
Cc1c(-c2nccc3cnc(Nc4ccc(S(C)(=O)=O)cc4F)cc23)ccc2c1cnn2CC(C)(C)O [Ex 846, 1-(5-(7-((2-fluoro-4-(methylsulfonyl)phenyl)amino)-2,6-naphthyridin-1-yl)-4-methyl-1H-indazol-1-yl)-2-methylpropan-2-ol]		> 250	> 250	> 250	< 25			
Cc1c(-c2nccc3cnc(Nc4ccc(S(C)(=O)=O)cc4Cl)cc23)ccc2c1cnn2CC(C)(C)O [Ex 847, 1-(5-(7-((2-chloro-4-(methylsulfonyl)phenyl)amino)-2,6-naphthyridin-1-yl)-4-methyl-1H-indazol-1-yl)-2-methylpropan-2-ol]	25 to 250	> 250	> 250	> 250				
Cc1c(-c2nccc3cnc(Nc4ccc(S(C)(=O)=O)cn4)cc23)ccc2c1cnn2CC(C)(C)O [Ex 848, 2-methyl-1-(4-methyl-5-(7-((5-(methylsulfonyl)pyridin-2-yl)amino)-2,6-naphthyridin-1-yl)-1H-indazol-1-yl)propan-2-ol]		> 250			< 25	25 to 250	25 to 250	
Cc1c(-c2nccc3cnc(Nc4ccc(S(=O)(=O)Nc5ncc(N6CCN(C)CC6)cn5)cc4)cc23)ccc2c1cnn2CC(C)(C)O [Ex 849, 4-((5-(1-(2-hydroxy-2-methylpropyl)-4-methyl-1H-indazol-5-yl)-2,6-naphthyridin-3-yl)amino)-N-(5-(4-methylpiperazin-1-yl)pyrimidin-2-yl)benzenesulfonamide]		> 250			< 25	25 to 250	25 to 250	
Cc1c(-c2nccc3cnc(Nc4ccc(S(=O)(=O)Nc5ncc(N6CCOCC6)cn5)cc4)cc23)ccc2c1cnn2CC(C)(C)O [Ex 850, 4-((5-(1-(2-hydroxy-2-methylpropyl)-4-methyl-1H-indazol-5-yl)-2,6-naphthyridin-3-yl)amino)-N-(5-morpholinopyrimidin-2-yl)benzenesulfonamide]		> 250	> 250	> 250	< 25			
CCOC(=O)c1cn2cc(C#Cc3nccc4cnc(Nc5ccc(S(C)(=O)=O)cc5)cc34)ccc2n1 [Ex 851, ethyl6-((7-((4-(methylsulfonyl)phenyl)amino)-2,6-naphthyridin-1-yl)ethynyl)imidazo[1,2-a]pyridine-2-carboxylate]		> 250	> 250	> 250				> 250
CC#Cc1nccc2cnc(Nc3ccc(S(=O)(=O)Nc4nccn4C)cc3)cc12 [Ex 854, N-(1-methyl-1H-imidazol-2-yl)-4-((5-(prop-1-yn-1-yl)-2,6-naphthyridin-3-yl)amino)benzenesulfonamide]		> 250	> 250	> 250	< 25			
Cc1c(-c2nccc3cnc(Nc4ccc(S(=O)(=O)Nc5nncn5C)cc4)cc23)ccc2c1cnn2CC(C)(C)O [Ex 855, 4-((5-(1-(2-hydroxy-2-methylpropyl)-4-methyl-1H-indazol-5-yl)-2,6-naphthyridin-3-yl)amino)-N-(4-methyl-4H-1,2,4-triazol-3-yl)benzenesulfonamide]	25 to 250	> 250	> 250	> 250				
CS(=O)(=O)c1ccc(Nc2cc3c(C#Cc4ccc5c(c4)OCO5)nccc3cn2)cc1 [Ex 857, 5-(benzo[d][1,3]dioxol-5-ylethynyl)-N-(4-(methylsulfonyl)phenyl)-2,6-naphthyridin-3-amine]	25 to 250	> 250	> 250	> 250				
CSc1ccc(C#Cc2nccc3cnc(Nc4ccc(S(C)(=O)=O)cc4)cc23)cc1 [Ex 858, N-(4-(methylsulfonyl)phenyl)-5-((4-(methylthio)phenyl)ethynyl)-2,6-naphthyridin-3-amine]	25 to 250	> 250	> 250	> 250				
Cc1c(-c2nccc3cnc(Nc4ccc(S(=O)(=O)Nc5nccn5C)cc4)cc23)ccc2c1cnn2CC(C)(C)O [Ex 867, 4-((5-(1-(2-hydroxy-2-methylpropyl)-4-methyl-1H-indazol-5-yl)-2,6-naphthyridin-3-yl)amino)-N-(1-methyl-1H-imidazol-2-yl)benzenesulfonamide]		> 250			< 25	25 to 250	25 to 250	

Other lines, results leading:

IC50 (CDK2/CCNE1; [1]) [nM]	IC50 (CDK1/CCNB1) [nM]	IC50 (CDK4/CCND3; [2]) [nM]	IC50 (CDK6/CCND1; [3]) [nM]	IC50 (CDK2/CCNE1; [4]) [nM]	IC50 (CDK6/CCND1; [5]) [nM]	IC50 (CDK4/CCND3; [6]) [nM]	IC50 (CDK2/CCNE1; [7]) [nM]	Compound
25 to 250	> 250	> 250	> 250					C[C@@H]1CN(c2cc(Nc3cc4c(C#Cc5ccc(=O)[nH]n5)nccc4cn3)cnc2O)CCN1C [Ex 853, (R)-6-((7-((5-(3,4-dimethylpiperazin-1-yl)-6-hydroxypyridin-3-yl)amino)-2,6-naphthyridin-1-yl)ethynyl)pyridazin-3(2H)-one absolute]
25 to 250	> 250	> 250	> 250					Cn1ncc2cc(C#Cc3nccc4cnc(Nc5ccc(S(C)(=O)=O)cc5)cc34)ccc21 [Ex 856, 5-((1-methyl-1H-indazol-5-yl)ethynyl)-N-(4-(methylsulfonyl)phenyl)-2,6-naphthyridin-3-amine]
25 to 250	> 250	> 250	> 250					Cn1cc2ccc(C#Cc3nccc4cnc(Nc5ccc(S(C)(=O)=O)cc5)cc34)cc2n1 [Ex 859, 5-((2-methyl-2H-indazol-6-yl)ethynyl)-N-(4-(methylsulfonyl)phenyl)-2,6-naphthyridin-3-amine]
	> 250	> 250	> 250				> 250	CS(=O)(=O)c1ccc(Nc2cc3c(C#Cc4cc(F)c5cn[nH]c5c4)nccc3cn2)cc1 [Ex 860, 5-((4-fluoro-1H-indazol-6-yl)ethynyl)-N-(4-(methylsulfonyl)phenyl)-2,6-naphthyridin-3-amine]
25 to 250	> 250	> 250	> 250					CS(=O)(=O)c1ccc(Nc2cc3c(C#Cc4ccc5c(O)ncnc5c4)nccc3cn2)cc1 [Ex 861, 7-((7-((4-(methylsulfonyl)phenyl)amino)-2,6-naphthyridin-1-yl)ethynyl)quinazolin-4-ol]
25 to 250	> 250	> 250	> 250					CN1CCN(c2ccc(C#Cc3nccc4cnc(Nc5ccc(S(=O)(=O)Nc6ncccn6)cc5)cc34)cc2)CC1 [Ex 864, 4-((5-((4-(4-methylpiperazin-1-yl)phenyl)ethynyl)-2,6-naphthyridin-3-yl)amino)-N-(pyrimidin-2-yl)benzenesulfonamide]
25 to 250	> 250	> 250	> 250					C[C@H]1CN(c2cc(Nc3cc4c(C#Cc5ccc(=O)[nH]n5)nccc4cn3)cnc2O)CCN1C [Ex 865, (S)-6-((7-((5-(3,4-dimethylpiperazin-1-yl)-6-hydroxypyridin-3-yl)amino)-2,6-naphthyridin-1-yl)ethynyl)pyridazin-3(2H)-one]
25 to 250	> 250	> 250	> 250					O=c1ccc(C#Cc2nccc3cnc(Nc4cnc(O)c(N5CCN(CCO)CC5)c4)cc23)n[nH]1 [Ex 866, 6-((7-((6-hydroxy-5-(4-(2-hydroxyethyl)piperazin-1-yl)pyridin-3-yl)amino)-2,6-naphthyridin-1-yl)ethynyl)pyridazin-3(2H)-one]

Source: patent US20260325533A1, “CDK INHIBITOR COMPOUNDS” (ALEKSIA THERAPEUTICS, INC., priority 2023, published 2026)
